{
  "source": "paper PMC6814738",
  "about": "“Bacterial MgrB peptide activates chemoreceptor Fpr3 in mouse accessory olfactory system and drives avoidance behaviour” (Nature Communications, 2019)",
  "key": {"Fpr3-expressing VSNs [1]": {"tested_on": "Fpr3-expressing VSNs", "experiment": "Egr1 induction in Fpr3-positive VSNs after oronasal peptide application, RNAscope (Fig. 7c, e)", "type": "in vivo, mouse", "conditions": "100 µM, male B6 mice", "protocol": "(§1) For each mouse, serial coronal VNO cryosections (12 µm) were collected as two alternate sets, each representing every second section of the whole VNO. One set was subjected to RNAscope in situ hybridisation using the RNAscope Fluorescent Multiplex Detection Kit (ACD Bio-Techne) and specific probes for Fpr3 and LacZ according to the manufacturer’s protocol. Sections were incubated in 1 x citrate buffer pH 6.0 (DAKO, Germany) for 5 min at 98 °C in a coplin jar, rinsed twice in distilled water, dehydrated in 100% ethanol, and air dried prior to protease III treatment for 30 min at 40 °C. After rinsing in distilled water, sections were simultaneously hybridised with RNA scope target probes generated for mouse Fpr3 and E.coli LacZ (ACD Bio-Techne). The Fpr3 probe was designed as channel 1 probe containing 7 ZZ structures targeting base pairs 456–1143 of NM_008042.2, specific to mouse Fpr3. The LacZ probe, designed as channel 3 probe contains 30 ZZ structures targeting the region 279–1790 bp of KC847299.1 (cat# 313451-C3). […] Following hybridisation (2 h, 40 °C), sections were rinsed twice for 2 min in wash buffer (ACD Bio-Techne), and sequentially treated with amplification solutions at 40 °C (30 min Amp1-FL, 15 min Amp2-FL, 30 min Amp3-FL) and fluorescence reagent (15 min, 40 °C Amp4-altC), with intermitting washing steps at room temperature between reagents. Cell nuclei were stained with DAPI solution (ACD Bio-Techne) for 1 min, and tissue sections were mounted with DAKO fluorescence medium and stored for 12 h at 4 °C. Fluorescence images of the RNAscope results were acquired from each section using a Zeiss LSM 880 confocal microscope containing a 32-channel GaAsP-PMT and 2-channel PMT QUASAR detector.\nWe stimulated adult male B6 mice with f-MKKFRW (100 µM) and performed double-labelling RNAscope in situ hybridisation for Fpr3 and the immediate early gene Egr1 on VNO tissue sections. […] VNO tissue was prepared for RNAscope fluorescence in situ hybridisation as described above using Fpr3 and Egr1 probes simultaneously. […]"}, "mouse Fpr3 (Fpr-rs1)": {"biological_target": "T1, mouse Fpr3 (Fpr-rs1) (Mus musculus, UniProt O08790)", "T1 construct": "expressed in transfected cells; host or cells: HEK293T (DSMZ # ACC-635), transient transfection with jetPEI", "T1 sequence (O08790 1-351)": "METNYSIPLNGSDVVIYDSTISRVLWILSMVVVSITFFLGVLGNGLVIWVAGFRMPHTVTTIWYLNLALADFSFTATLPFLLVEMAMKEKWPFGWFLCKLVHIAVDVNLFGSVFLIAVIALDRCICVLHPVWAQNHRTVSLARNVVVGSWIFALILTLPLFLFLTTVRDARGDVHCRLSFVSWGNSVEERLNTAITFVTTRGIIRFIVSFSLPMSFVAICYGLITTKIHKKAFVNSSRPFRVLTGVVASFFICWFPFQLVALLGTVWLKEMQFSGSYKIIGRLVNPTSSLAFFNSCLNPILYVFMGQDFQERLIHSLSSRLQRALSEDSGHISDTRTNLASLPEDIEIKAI", "experiment": "Concentration-response Ca2+ imaging of Fpr3-transfected HEK293T cells (Fig. 2f, h, j)", "type": "cell-based", "conditions": "Ca2+ responses of Fpr3-transfected HEK293T; Fluo-4/AM, FLIPR; buffer C1 pH 7.2; Fig. 2f, h, j", "protocol": "An Fpr3 gene subcloned from genomic DNA of C57BL/6J mice into pcDNA3.1 (Invitrogen) was used in heterologous experiments[21],[80]. HEK293T (DSMZ # ACC-635) cells were seeded at 20–30% confluence on poly-D-lysine-coated (10 µg/ml in PBS) black 96-well µCLEAR-Plates (Greiner Bio-One). Cells were transfected 24 h later using jetPEI™ (Polyplus-transfection SA) according to the manufacturer’s protocol for 96-well transfections. For Ca^2+ imaging experiments, 0.125 µg of DNA plasmid encoding Fpr3 were cotransfected with equal amounts of a plasmid encoding Gα16, a promiscuous G protein α-subunit. Ca^2+ signals to agonist stimulation were recorded 48 h post transfection using the Ca^2+ indicator dye Fluo-4/AM (Molecular Probes) and a fluorescence imaging plate reader (FLIPR) system (Molecular Devices).\nWe used custom-made peptides with a length of 6–21 amino acids to screen for agonists. Sequences of fMet peptides were designed according to motifs present at the N-termini of 15,125 specific bacterial proteins as annotated in UniProt. Peptides were chemically synthesised, purified, and verified by mass spectroscopy (MALDI-TOF) by commercial suppliers. […] Source, sequence and purity of each peptide are listed in Supplementary Data 1. Lyophilised peptides were routinely dissolved in the Ca^2+ imaging assay buffer C1 (130 mM NaCl, 10 mM HEPES, 5 mM KCl, 2 mM CaCl2, 5 mM glucose, pH 7.2) as 0.2–1 mM stock solutions and kept in small aliquots at −20 °C until use."}, "Fpr3-expressing VSNs [2]": {"tested_on": "Fpr3-expressing VSNs", "experiment": "Egr1 induction in Fpr3-positive VSNs after voluntary peptide uptake in freely behaving mice, RNAscope (Fig. 7d, f)", "type": "in vivo, mouse", "conditions": "male B6 mice", "protocol": "as §1, with “°C.” for “°C. After rinsing in distilled water, sections were simultaneously hybridised with RNA scope target probes generated for mouse Fpr3 and E.coli LacZ (ACD Bio-Techne). The Fpr3 probe was designed as channel 1 probe containing 7 ZZ structures targeting base pairs 456–1143 of NM_008042.2, specific to mouse Fpr3. The LacZ probe, designed as channel 3 probe contains 30 ZZ structures targeting the region 279–1790 bp of KC847299.1 (cat# 313451-C3).”, “detector. […]” for “detector.”"}},
  "note": "Peptide text beside a SMILES is read from it. * marks the point of attachment. For = O=C*",
  "data": [
    {"smiles": "CSCC[C@H](NC=O)C(=O)N[C@@H](CCCCN)C(=O)N[C@@H](CCCCN)C(=O)N[C@@H](Cc1ccccc1)C(=O)N[C@@H](CCCNC(=N)N)C(=O)N[C@@H](Cc1c[nH]c2ccccc12)C(=O)O", "note": "[f-MKKFRW] (For-MKKFRW-OH)", "values": [
      {"measurement": "Egr1-positive / Fpr3-positive VSNs", "setting": "Fpr3-expressing VSNs [1]; oronasal", "result": "145/317"},
      {"measurement": "fraction of Fpr3-positive VSNs co-localised with Egr1", "setting": "Fpr3-expressing VSNs [1]; oronasal, mean ± s.d.", "result": "0.46 ± 0.11"},
      {"measurement": "Egr1 induction in Fpr3-positive VSNs", "setting": "Fpr3-expressing VSNs [1]; oronasal or voluntary uptake, both types of experiments", "result": "~ 50%"},
      {"measurement": "EC50", "setting": "mouse Fpr3 (Fpr-rs1)", "result": 7.7, "unit": "µM"},
      {"measurement": "fraction of Fpr3-positive VSNs co-localised with Egr1", "setting": "Fpr3-expressing VSNs [2]; 100 µM in 50% FEU, mean ± s.d.", "result": "0.46 ± 0.12"},
      {"measurement": "Egr1-positive / Fpr3-positive VSNs", "setting": "Fpr3-expressing VSNs [2]; 100 µM", "result": "77/160"}
    ]}
  ]
}
